Here are results for 6 molecules from patent US20060154880A1, “Methods and compositions using immunomodulatory compounds for treatment and management of parasitic diseases” (priority 2004, published 2006).

The conditions of data set [1]: cited from earlier work; for hygroscopicity: polymorphic form, solid state; for stability / interconversion of polymorphic form: solvent system as stated.
In another data set the test system is IL-2 production. Kind of data set: Augmentation of IL-2 production following TCR activation of PBMC. Format: cell-based.
For a further data set, the system named is IL-1β production. Kind of data set: LPS-stimulated production of IL-1β by PBMC. It is filed as cell-based.
For the next data set, the system named is IFN-γ production. Kind of data set: Augmentation of IFN-γ production following TCR activation of T-cells. It is filed as cell-based.
Another data set deals with T-cells. Kind of data set: Stimulation of T-cell proliferation following primary induction by TCR activation. Format: cell-based.
The subject of another data set is IL-10 production. Put plainly: LPS-stimulated production of IL-10 by PBMC. Format: cell-based.
The test system of the next data set is IL-6 production. Put plainly: LPS-stimulated production of IL-6 by PBMC. It is filed as cell-based.
Another data set relates to TNF-α production. Kind of data set: Inhibition of TNF-α production following LPS-stimulation of human PBMC. It is filed as cell-based.

For `Nc1cccc2c1CN(C1CCC(=O)NC1=O)C2=O` (stereo not shown) [Form A, 3-(4-amino-1-oxo-1,3 dihydro-isoindol-2-yl)-piperidene-2,6-dione], in data set [1], the hygroscopicity entry is recorded as “weakly or not hygroscopic” and the “stability / interconversion of polymorphic form” value (shortened to “stability / interconversion”) is recorded as “most thermodynamically stable anhydrous polymorph”.

With `Nc1cccc2c1CN(C1CCC(=O)NC1=O)C2=O` (stereo not shown) [Form D, 3-(4-amino-1-oxo-1,3 dihydro-isoindol-2-yl)-piperidene-2,6-dione], the hygroscopicity entry in data set [1] is “either weakly or not hygroscopic”.

On to `Nc1cccc2c1CN(C1CCC(=O)NC1=O)C2=O` (stereo not shown), for which the “potency relative to thalidomide in augmenting the production of IL-2” value in the data set with IL-2 production is listed as 50-100 times. In the data set on IL-1β production, the “effect on LPS-stimulated production of IL-1β by PBMC” value was “dose-dependent inhibition”. Moreover, the “potency relative to thalidomide in augmenting the production of IFN-γ” value with IFN-γ production is recorded as 50-100 times. The “potency relative to thalidomide in stimulating the proliferation of T-cells” value in the data set on T-cells is 50-100 times. Also, the “effect on production of the anti-inflammatory cytokine IL-10” value with IL-10 production is given as “increased production”. Besides, in the data set with IL-6 production, the “effect on LPS-stimulated production of IL-6 by PBMC” value is listed as “dose-dependent inhibition”. The “effect on LPS-stimulated production of TNF-α by PBMC” value with TNF-α production is reported as “dose-dependent inhibition”.

As to `Nc1cccc2c1CN(C1CCC(=O)NC1=O)C2=O` (stereo not shown) [Form B, 3-(4-amino-1-oxo-1,3 dihydro-isoindol-2-yl)-piperidene-2,6-dione], in data set [1], the “stability / interconversion” value is listed as “converts to Form E in aqueous solvent systems”.

`Nc1cccc2c1CN(C1CCC(=O)NC1=O)C2=O` (stereo not shown) [Form C, 3-(4-amino-1-oxo-1,3 dihydro-isoindol-2-yl)-piperidene-2,6-dione]: in data set [1], the hygroscopicity result is “not hygroscopic below about 85% RH”.

Take `Nc1cccc2c1CN(C1CCC(=O)NC1=O)C2=O` (stereo not shown) [Form E, 3-(4-amino-1-oxo-1,3 dihydro-isoindol-2-yl)-piperidene-2,6-dione]: the “stability / interconversion” value in data set [1] was “most stable form”.
